# Biological target: T1, TNIK (Homo sapiens, UniProt Q9UKE5)
# T1 construct: purchased Promega V4158
# Assay: ADP-Glo Kinase Assay, inhibition activity on TNIK
# Assay type: biochemical
# Details: read-out: TNIK
# Experimental: The inhibition activities on TNIK, IKKε and TBK1 were measured by a luminometer, TNIK/IKKε/TBK1 Kinase Enzyme System (Promega, Ca# V4158; Invitrogen, PR8031B, Promega, Ca# V3991) and ADP-Glo Kinase Assay using ADP-Glo™ Kinase Analysis Kit (Promega, Ca# V9101) and a kinase reaction buffer [40 mM Tris(pH 7.5), 20 mM MgCl2, 0.1 mg/mL BSA] in accordance with the manufacturer's protocol.
# T1 sequence (Q9UKE5 1-367 limits assumed): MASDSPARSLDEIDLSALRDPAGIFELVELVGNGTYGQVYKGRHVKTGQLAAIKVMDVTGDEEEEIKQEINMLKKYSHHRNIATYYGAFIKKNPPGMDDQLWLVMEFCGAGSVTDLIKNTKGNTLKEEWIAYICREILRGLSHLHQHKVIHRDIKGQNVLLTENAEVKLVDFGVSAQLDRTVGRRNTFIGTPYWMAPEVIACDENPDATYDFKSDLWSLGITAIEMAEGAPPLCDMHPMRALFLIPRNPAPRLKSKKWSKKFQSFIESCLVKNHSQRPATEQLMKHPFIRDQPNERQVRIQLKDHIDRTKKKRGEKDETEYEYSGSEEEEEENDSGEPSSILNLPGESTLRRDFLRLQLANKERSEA
row,SMILES,IC50
1,"CNC(=O)c1ccc(NC(=O)c2ccc(F)cc2)c2c1CNC2=O [Example 389, 7-(4-Fluorobenzamido)-N-methyl-1-oxoisoindoline-4-carboxamide]",> 20000 nM
2,"N#CCCNc1ccc(-c2ccccc2)c2c1C(=O)NC2 [Example 254, 3-((3-Oxo-7-phenylisoindolin-4-yl)amino)propanenitrile]",5600 nM
3,"O=C(Nc1ccc(Br)c2c1C(=O)NC2)c1ccc(NCCN2CCCCC2)cc1 [Example 284, N-(7-bromo-3-oxoisoindolin-4-yl)-4-((2-(piperidin-1-yl)ethyl)amino)benzamide]",1550 nM
4,CN(C)CCNc1ccc(C(=O)Nc2ccc(Nc3ccccc3)c3c2C(=O)NC3)cc1 [Example 441],240 nM
5,Cn1cc(Nc2ccc(NC(=O)c3ccc(F)cc3)c3c2CNC3=O)cn1 [Example 430],6470 nM
6,"Nc1cccc(-c2ccc(NC(=O)c3ccc(NCCN4CCOCC4)cc3)c3c2CNC3=O)c1O [Example 348, N-(7-(3-amino-2-hydroxyphenyl)-3-oxoisoindolin-4-yl)-4-((2-morpholinoethyl)amino)benzamide]",3180 nM
7,"COc1cccc(Nc2ccc(NC(=O)c3ccc(NCCCN4CCCC4)cc3)c3c2CNC3=O)c1 [Example 447, N-(7-((3-methoxyphenyl)amino)-3-oxoisoindolin-4-yl)-4-((3-(pyrrolidin-1-yl)propyl)amino)benzamide]",550 nM
8,"COc1cccc(-c2ccc(NC(=O)c3ccc(NCCN4CCN(C)CC4)cc3)c3c2CNC3=O)c1OC [Example 314, N-(7-(2,3-dimethoxyphenyl)-3-oxoisoindolin-4-yl)-4-((2-(4-methylpiperazin-1-yl)ethyl)amino)benzamide]",86 nM
9,"O=C(Nc1ccc(Nc2cc(C(F)(F)F)cc(C(F)(F)F)c2)c2c1C(=O)NC2)c1ccc(NCCN2CCCC2)cc1 [Example 465, N-(7-((3,5-bis(trifluoromethyl)phenyl)amino)-3-oxoisoindolin-4-yl)-4-((2-(pyrrolidin-1-yl)ethyl)amino)benzamide]",> 20000 nM
10,"O=C(Nc1ccc(-c2cccc3ncccc23)c2c1C(=O)NC2)c1ccc(NCCN2CCCC2)cc1 [Example 386, N-(3-oxo-7-(quinolin-5-yl)isoindolin-4-yl)-4-((2-(pyrrolidin-1-yl)ethyl)amino)benzamide]",99 nM
11,"COc1cccc(-c2ccc(NC(=O)c3ccc(OCCN4CCOCC4)cc3)c3c2CNC3=O)c1OC [Example 347, N-(7-(2,3-dimethoxyphenyl)-3-oxoisoindolin-4-yl)-4-(2-morpholinoethoxy)benzamide]",200 nM
12,"O=C(Nc1ccc(C2CC2)c2c1C(=O)NC2)c1ccccc1 [Example 173, N-(7-cyclopropyl-3-oxoisoindolin-4-yl)benzamide]",750 nM

# Further lines, results first:
row,IC50,SMILES
1,> 20000 nM,"O=C(Nc1ccc(-c2ccccc2)c2c1C(=O)NC2)c1ccc(F)cc1F [Example 91, 2,4-Difluoro-N-(3-oxo-7-phenylisoindolin-4-yl)benzamide]"
2,15200 nM,"O=C(Nc1ccc(-c2ccccc2)c2c1C(=O)NC2)c1ccccc1Cl [Example 201, 2-Chloro-N-(3-oxo-7-phenylisoindolin-4-yl)benzamide]"
3,4020 nM,"COc1ccc(-c2ccc(NC(=O)Nc3ccccc3)c3c2CNC3=O)cc1 [Example 244, 1-(7-(4-Methoxyphenyl)-3-oxoisoindolin-4-yl)-3-phenylurea]"
4,700 nM,"COc1ccccc1-c1ccc(NC(=O)c2ccccc2)c2c1CNC2=O [Example 144, N-(7-(2-methoxyphenyl)-3-oxoisoindolin-4-yl)benzamide]"
5,> 20000 nM,"O=C(Nc1ccc(-c2ccc(Cl)c(Cl)c2)c2c1C(=O)NC2)c1ccccc1 [Example 20, N-(7-(3,4-dichlorophenyl)-3-oxoisoindolin-4-yl)benzamide]"
6,> 20000 nM,"CC(C)Oc1cccc(-c2ccc(NC(=O)c3ccccc3)c3c2CNC3=O)c1 [Example 7, N-(7-(3-isopropoxyphenyl)-3-oxoisoindolin-4-yl)benzamide]"

# — patent publication US9856216B2, “Compounds as TNIK, IKKε and TBK1 inhibitors and pharmaceutical composition comprising same” (GREEN CROSS CORPORATION, priority 2015, dated 2018)
